Laboratory results: patent US12617757B2, “Compounds and modules for inhibition of pre-miR-21 and their use in treatment of certain cancers” (University of Florida Research Foundation, Incorporated, priority 2019, dated 2026)

Columns and labels:
RNase L = target: T1, RNase L (Homo sapiens, UniProt Q05823); assay: In vitro fluorescence recovery assay with model RNA (RNase L activation); format: biochemical; set-up: GST; made in house
T1 sequence (Q05823 1-741): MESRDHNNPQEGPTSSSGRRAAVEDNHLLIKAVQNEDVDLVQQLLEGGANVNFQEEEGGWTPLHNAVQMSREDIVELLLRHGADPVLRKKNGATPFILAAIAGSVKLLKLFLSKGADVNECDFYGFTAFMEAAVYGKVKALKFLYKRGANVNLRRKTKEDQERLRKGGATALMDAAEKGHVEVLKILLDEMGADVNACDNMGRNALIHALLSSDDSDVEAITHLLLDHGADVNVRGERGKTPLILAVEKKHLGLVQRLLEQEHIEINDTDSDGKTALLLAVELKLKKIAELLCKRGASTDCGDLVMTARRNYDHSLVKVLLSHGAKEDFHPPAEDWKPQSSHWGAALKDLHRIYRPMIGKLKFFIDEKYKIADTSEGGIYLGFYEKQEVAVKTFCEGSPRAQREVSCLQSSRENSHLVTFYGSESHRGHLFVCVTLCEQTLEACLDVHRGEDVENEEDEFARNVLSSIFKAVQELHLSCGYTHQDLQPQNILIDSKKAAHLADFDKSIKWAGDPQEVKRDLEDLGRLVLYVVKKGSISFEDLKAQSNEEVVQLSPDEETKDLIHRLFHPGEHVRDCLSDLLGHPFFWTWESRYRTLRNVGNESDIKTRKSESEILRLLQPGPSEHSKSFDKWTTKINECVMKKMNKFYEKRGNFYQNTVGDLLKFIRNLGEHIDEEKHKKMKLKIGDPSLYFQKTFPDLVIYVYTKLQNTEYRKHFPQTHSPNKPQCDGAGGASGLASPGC
Experimental: In Vitro Fluorescent RNA Cleavage. A model RNA hairpin^15 labeled with a 5′ 6-Fluorescein (6FAM) and 3′ Black Hole Quencher (IQ4) (5′ 6FAM-[…]-3′ IQ4; 5′ FAM/3′ BHQ model RNA) (SEQ ID NO: 3) or a miR-21 Hairpin Precursor RNA labeled with a 5′ 6-Fluorescein (6FAM) and 3′ Black Hole Quencher (IQ4) (5′ 6FAM-[…] […]-3′ IQ4; 5′ FAM/3′ BHQ miR-21 Hairpin Precursor RNA) (SEQ ID NO: 4) was purchased from Chemgenes with HPLC purification. Solutions of RNA (100 nM) were folded at 65° C. for 5 min and slowly cooled to room temperature in 1×RNase L Buffer (25 mM Tris-HCl, pH 7.4, 100 mM KCl) without MgCl2, β-mercaptoethanol or ATP. After folding, the RNA was supplemented with 10 mM MgCl2, fresh 7 mM β-mercaptoethanol, and 50 μM of ATP. Next, 100 nM of RNase L, prepared as described previously^22, and various concentrations of screening compounds were prepared in 1×RNase L Buffer and added to the RNA. […] The samples were incubated at room temperature for 60 min after which the fluorescence intensity (Ex: 485 nm, Em: 525 nm) was measured using a SpectraMax M5 plate reader or Biotek FLx800 plate reader. The percentage change in fluorescence intensity, where enhancement of fluorescence intensity was indicative of RNA cleavage, was determined by calculating the percentage change in sample fluorescent signals relative to the untreated fluorescent signal (Fi, %). […]

pre-miR-21 = assay: RT-qPCR of mature miR-21 and pre-miR-21 levels in MDA-MB-231 cells; format: cell-based, human; details: MDA-MB-231, RT-qPCR
Experimental: Cell culture compound treatment and transfection. For treatment with compounds, stocks in DMSO or water were diluted in growth media and added to cells for 24-72 h. For transfection of plasmid DNA to overexpress the miR-21 hairpin precursor in pcDNA3.1 (Addgene 21114) or pcDNA3-RNaseL (R. H. Silverman, Cleveland Clinic^24) in 24-well plates, Lipofectamine 2000 was used according to the manufacturer's protocol. After transfection, the medium was removed and replaced with growth medium containing compound prepared as described above. For transfection of a control (Santa Cruz Biotechnology: sc-37007) or RNase L targeting siRNA (Santa Cruz Biotechnology: sc-45965), Lipofectamine RNAiMAX Reagent was used for transfection of oligonucleotides, including 2′-5′ A4, according to the manufacturer's protocol.

pri-miR-21 RNA = assay: In vitro Ribo-SNAP; format: biochemical; details: dose responsive treatment
Experimental: In vitro Ribo-SNAP. The pri-miR-21 RNA (1 μM) was folded as described above. Dilutions of cleaver compounds (Bleomycin A5 or 10) were pre-activated by the addition of 1 eq Fe^2+ and added to the folded RNA in a total volume of 20 μL. After 30 min and 60 min, an additional equivalent of Fe^2+ was added and then the reaction mixtures were incubated at 37° C. overnight. After ethanol precipitation and quantification by Nanodrop, reverse transcription was performed using SuperScript™ III Reverse Transcriptase (ThermoFisher Scientific) per the manufacturer's protocol using a 5′ ^32P-labeled forward primer (˜10,000 counts). The A, T, G and C sequencing ladders were generated by using a ratio of ddNTP/dNTP of 3:1. The RNA was digested by the addition of RNase A and RNase H and incubated at 37° C. for 30 min. Then, an equal volume of Loading Buffer (95% […], 50 mM EDTA, 0.05% (w/v) bromophenol blue, 0.05% (w/v) xylene cyanol) was added to each reaction. The final mixture was resolved on a denaturing 15% polyacrylamide gel.

pri-miR-21 = assay: Ribo-SNAP-Map in MDA-MB-231 cells; format: cell-based, human
Experimental: Ribo-SNAP-Map. The MDA-MB-231 cells were grown in 100 mm dishes to ˜70% confluency and treated with cleaving compound (10) for 6 h. Total RNA was then extracted by treatment with TRIzol (ThermoFisher Scientific) and quantified by Nanodrop. Approximately 10 μg of total RNA was used for reverse transcription with a pri-miR-21 specific primer (5′-[…]-3′; 2 pmol) (SEQ ID NO: 12) using Superscript III (SSIII; Life Technologies). Approximately of 10 μg RNA with 2 pmol of gene-specific primer and 1 μL 10 mM dNTP Mix in a total volume of 13 μL was incubated at 65° C. for 5 min and then placed in ice for 5 min. Next, 4 μL 5×First-Strand Buffer, 1 μL 0.1 M DTT, 1 μL RNaseOUT and 1 μL SuperScript™ III RT were added and the mixture was incubated at 50° C. for 1 h, followed by 85° C. for 10 min. After digestion with RNase A and RNase H, the remaining cDNA was purified using RNAClean XP beads (Beckman Coulter; 1.8 volumes of beads and 3 volumes of isopropanol).
The purified cDNA was ligated with a 3′ adapter (5′ Phosphate NNN-[…]-3′ Biotin) (SEQ ID NO: 13) by T4 RNA ligase 1 (New England BioLabs; NEB) following the manufacturer's recommended protocol (2 μL 10×T4 RNA ligase buffer, 1 μL of 1 mM ATP, 10 μL 50% PEG 8000, 5 μL cDNA, 1 μL of 20 μM ssDNA adaptor, and 1 μL of T4 RNA ligase). Then, the cDNA ligated to the adaptor was purified with RNAClean XP beads as described above. PCR amplification was performed with the ligated cDNA by using Phusion polymerase (NEB) with cycling conditions of 98° C. for 20 s, 64° C. for 20 s and 72° C. for 90 s and the following forward (5′-[…]-3′) (SEQ ID NO: 14) and reverse (5′-[…]-3′) (SEQ ID NO: 15) primers. The PCR products were separated on a denaturing 15% polyacrylamide gel and the target band was excised from the gel and ethanol precipitated. The purified DNA was ligated into a vector using NEB's PCR Cloning Kit per the manufacturer's protocol. Antibiotic-resistant colonies were selected and subjected to Sanger sequencing by Genewiz. The cleavage sites and percentage were determined by comparing the cleaver treated samples and non-treated samples.

Compound: CCOC(=O)C1=C(Nc2ccccc2)S/C(=C\c2ccc(OC)c(O)c2)C1=O [Compound 3]
- RNase L activation, dose-responsive measurements (RNase L): most active activator of RNase L

Compound: CCCN(CC(=O)N(CCC)CC(=O)N(CCC)CC(=O)N(CC(=O)NCCCCNCCCNC(=O)c1csc(-c2csc(CCNC(=O)C(NC(=O)C(C)[C@H](O)C(C)NC(=O)C(NC(=O)c3nc(C(CC(N)=O)NC[C@H](N)C(N)=O)nc(N)c3C)[C@@H](OC3OC(CO)C(O)C(O)C3OC3OC(CO)C(O)C(OC(N)=O)C3O)c3c[nH]cn3)C(C)O)n2)n1)Cc1cn(CCCNC(=O)CCCOc2ccc(-c3nc4cc(-c5ccc(N6CCN(C)CC6)cc5)ccc4[nH]3)cc2)nn1)C(=O)CN(Cc1cn(CCCNC(=O)CCCOc2ccc(-c3nc4cc(-c5ccc(N6CCN(C)CC6)cc5)ccc4[nH]3)cc2)nn1)C(C)=O (stereo partly shown) [Compound 10]
- effect on mature miR-21 levels (pre-miR-21): decreases mature miR-21 levels
- effect on pre-miR-21 levels (pre-miR-21): cleaved and decreased pre-miR-21 levels
- RT stops induced in pri-miR-21 (pri-miR-21 RNA): induced an RT stop at the indicated sites
- reads that stop at the second A (3′) (pri-miR-21; 3/21 reads): 14%
- reads that stop at the third A (3′) (pri-miR-21; 6/21 reads): 29%
- reads that stop at the first C (5′) (pri-miR-21; 12/21 reads): 57%
